# Laboratory results as given in patent US20080300288A1, “Alkenyldiarylmethanes, Fused Analogs And Syntheses Thereof” (PURDUE RESEARCH FOUNDATION, priority 2005, published 2008).
# Read-outs that look alike come from different tables or passages of the source.
# Columns and labels:
# HIV-1 strain IIIB = test: MTT assay, HIV-1 strain IIIB in MT-4 cells; assay type: cell-based; details: Human immunodeficiency virus 1, MT4; HIV-1IIIB in MT-4 cells; read-out: EC50 HIV-1IIIB (inhibition of cytopathicity)
# MT-4 cells = test: Cytotoxicity in mock-infected MT-4 cells; assay type: cell-based; details: read-out: CC50 MT-4 Cells (50% cytotoxic concentration)
# [1] = target: T1, recombinant HIV-1 RT enzyme (p66/51 dimer) (Human immunodeficiency virus type 1 group M subtype B, UniProt P04585); test: RT inhibition assay, incorporation of [32P]GTP into poly(rC)/oligo(dG); assay type: biochemical
# T1 construct: recombinant HIV-1 RT enzyme (p66/51 dimer)
# Description: RT Inhibition Assay. Analysis of the effects of the compounds on recombinant HIV-1 RT enzyme (p66/51 dimer) was performed as previously described. See, Buckheit, R. W. J.; Fliakas-Boltz, V.; Decker, W. D.; Robertson, J. L.; Stup, T. L.; Pyle, C. […] Antiviral Res. 1995, 26, 117-132, the disclosure of which is incorporated herein by reference. Briefly, inhibition of purified recombinant reverse transcriptase enzyme was measured by the incorporation of [^32P]GTP into poly(rC)/oligo(dG) (rCdG) homopolymer template primers.
# CEM-SS cells = test: Cytotoxicity in mock-infected CEM-SS cells; assay type: cell-based; details: read-out: CC50 CEM-SS Cells (50% cytotoxic concentration)
# Description: (§1) In Vitro Antiviral Assays. Evaluation of the antiviral activity of compounds against HIV-1RF infection in CEM-SS cells was performed using the MTS cytoprotection assay as previously described. See, Rice, W. G.; Bader, J. P. Discovery and in Vitro Development of AIDS Antiviral Drugs as Biopharmaceuticals. Adv. Pharmacol. (San Diego) 1995, 6, 389-438, the disclosure of which is incorporated herein by reference. […] See, Pauwels, R.; Balzarini, J.; Baba, M.; Snoeck, R.; Schols, […].; De […]. Rapid and Automated Tetrazolium-based Colorimetric Assay for Detection of Anti-HIV Compounds. J. Virol. Methods 1988, 20, 309-321, the disclosure of which is incorporated herein by reference.
# HIV-1RF = test: MTS cytoprotection assay, HIV-1RF infection in CEM-SS cells; assay type: cell-based; details: Human immunodeficiency virus 1; HIV-1RF in CEM-SS cells; read-out: EC50 HIV-1RF (inhibition of cytopathicity)
# Description: In Vitro Antiviral Assays. Evaluation of the antiviral activity of compounds against HIV-1RF infection in CEM-SS cells was performed using the MTS cytoprotection assay as previously described. See, Rice, W. G.; Bader, J. P. Discovery and in Vitro Development of AIDS Antiviral Drugs as Biopharmaceuticals. Adv. Pharmacol. (San Diego) 1995, 6, 389-438, the disclosure of which is incorporated herein by reference. […] See, Pauwels, R.; Balzarini, J.; Baba, M.; Snoeck, R.; Schols, D.; Herdewijn, P.; Desmyter, J.; De Clercq, E. Rapid and Automated Tetrazolium-based Colorimetric Assay for Detection of Anti-HIV Compounds. J. Virol. Methods 1988, 20, 309-321, the disclosure of which is incorporated herein by reference.
# [2] = In vitro hydrolytic stability study in rat plasma; assay type: in vitro ADME; details: rat plasma in vitro, half-life
# Description: NMR spectra were obtained at 300 MHz (^1H) and 75 MHz (^13C) in CDCl3 using CHCl3 as internal standard. Flash chromatography was performed with 230-400 mesh silica gel. […] Melting points are uncorrected. Unless otherwise stated, chemicals and solvents were of reagent grade and used as obtained from commercial sources without further purification. Tetrahydrofuran (THF) was freshly distilled from sodium/benzophenone ketyl radical prior to use. Dichloromethane was freshly distilled from calcium hydride prior to use. Lyophilized rat plasma (lot 052K7609) was obtained from Sigma Chemical Co., St. Louis, Mo. All yields given refer to isolated yields.
# In vitro Hydrolytic Stability Study in Rat Plasma. […] See, Silvestri, M. A.; Nagarajan, M.; De Clercq, E.; Pannecouque, C.; Cushman, M. Design, Synthesis, Anti-HIV Activities, and Metabolic Stabilities of Alkenyldiarylmethane (ADAM) Non-nucleoside Reverse Transcriptase Inhibitors. J. Med. Chem. 2004, 47, 3149-3162, the disclosure of which is incorporated herein by reference.
# [3] = Cytotoxicity in mock-infected MT-4 cells; assay type: cell-based; details: human, uninfected (mock-infected) MT-4 cells
# [4] = Cytotoxicity in mock-infected CEM-SS cells; assay type: cell-based; details: human, uninfected (mock-infected) CEM-SS cells
# Description: as §1
# HIV-2 strain (ROD) = test: MTT assay, HIV-2 strain (ROD) in MT-4 cells; assay type: cell-based; details: Human immunodeficiency virus 2, MT4; HIV-2ROD in MT-4 cells; read-out: EC50 HIV-2-ROD (inhibition of cytopathicity)
compound,measurement,setting,value
"COC(=O)CCCC=C(c1cc(C)c(OC)c(C(=O)OC)c1)c1cc(C)c(OC)c(C(=O)OC)c1 [Compound 1, Methyl 4′,4″-Dimethoxy-3′,3″-di(methoxycarbonyl)-5′,5″-dimethyl-6,6-diphenyl-5-hexenoate]",EC50,HIV-1 strain IIIB,1000 nM
same,CC50,MT-4 cells,6.1 µM
same,IC50,"[1]; poly(rC)•oligo(dG) as the template primer, read-out: IC50 (inhibitory activity vs HIV-1 reverse transcriptase)",1000 nM
same,CC50,CEM-SS cells,6 µM
same,EC50,HIV-1RF,250 nM
same,Rat Plasma tp1/2 (min ± SD),[2],0.76 ± 0.04 min
"COC(=O)CCC/C=C(\c1cccc(C#N)c1)c1cc(C)c2onc(OC)c2c1 [Compound 20, (E)-6-(3-Cyanophenyl)-6-(3-methoxy-7-methylbenzo[d]isoxazol-5-yl)-hex-5-enoic Acid Methyl Ester]",EC50,HIV-1 strain IIIB,> 2050 nM
same,CC50,[3],4.69 µM
same,IC50,[1],5700 nM
same,CC50,[4],0.8 µM
same,EC50,HIV-1RF,> 100000 nM
same,Rat Plasma tp1/2 (min ± SD),[2],1.16 ± 0.08 min
same,EC50,HIV-2 strain (ROD),> 5.63 µM
"COC(=O)CCC/C=C(/c1cc(C)c(OC)c(C(=O)OC)c1)c1cc(C)c2oc(=O)n(C)c2c1 [Compound 60, (Z)-5-[1-(3,7-Dimethyl-2-oxo-2,3-dihydro-benzoxazol-5-yl)-5-methoxycarbonyl-pent-1-enyl]-2-methoxy-3-methylbenzoic Acid Methyl Ester]",EC50,HIV-1 strain IIIB,1010 nM
same,CC50,[3],28.2 µM
same,IC50,[1],160 nM
same,CC50,[4],9.39 µM
same,EC50,HIV-1RF,870 nM
same,Rat Plasma tp1/2 (min ± SD),[2],1.74 ± 0.00 min
same,EC50,HIV-2 strain (ROD),> 28.2 µM
"COC(=O)CCC/C=C(/c1cc(Cl)c(OC)c(C(=O)OC)c1)c1cc(C)c2oc(=O)n(C)c2c1 [Compound 61, (E)-3-Chloro-5-[1-(3,7-dimethyl-2-oxo-2,3-dihydro-benzoxazol-5-yl)-5-methoxycarbonyl-pent-1-enyl]-2-methoxybenzoic Acid Methyl Ester]",EC50,HIV-1 strain IIIB,250 nM
same,CC50,[3],29.7 µM
same,IC50,[1],930 nM
same,CC50,[4],9.47 µM
same,EC50,HIV-1RF,530 nM
same,Rat Plasma tp1/2 (min ± SD),[2],0.19 ± 0.01 min
same,EC50,HIV-2 strain (ROD),> 29.7 µM
"COC(=O)CCC/C=C(/c1ccc(OC)c(C(=O)OC)c1)c1cc(C)c2oc(=O)n(C)c2c1 [Compound 62, (Z)-5-[1-(3,7-Dimethyl-2-oxo-2,3-dihydrobenzoxazol-5-yl)-5-methoxycarbonyl-pent-1-enyl]-2-methoxy-benzoic Acid Methyl Ester]",EC50,HIV-1 strain IIIB,4150 nM
same,CC50,[3],115 µM
same,IC50,[1],990 nM
same,melting point,,134 to 135 °C
same,CC50,[4],> 13.5 µM
same,EC50,HIV-1RF,3080 nM
same,Rat Plasma tp1/2 (min ± SD),[2],0.34 ± 0.15 min
same,EC50,HIV-2 strain (ROD),> 115 µM
"COC(=O)CCC/C=C(\c1cc(F)cc(C(F)(F)F)c1)c1cc(C)c2oc(=O)n(C)c2c1 [Compound 63, (Z)-6-(3,7-Dimethyl-2-oxo-2,3-dihydrobenzoxazol-5-yl)-6-(3-fluoro-5-trifluoromethylphenyl)-hex-5-enoic Acid Methyl Ester]",EC50,HIV-1 strain IIIB,4360 nM
same,CC50,[3],51 µM
same,IC50,[1],> 100000 nM
same,CC50,[4],15 µM
same,EC50,HIV-1RF,> 100000 nM
same,Rat Plasma tp1/2 (min ± SD),[2],3.06 ± 0.32 min
same,EC50,HIV-2 strain (ROD),> 60 µM
"COC(=O)CCC/C=C(\c1cc(C)c(OC)c(C(=O)OC)c1)c1cc(C)c2oc(=O)n(C)c2c1 [Compound 64, (E)-5-[1-(3,7-Dimethyl-2-oxo-2,3-dihydro-benzoxazol-5-yl)-5-methoxycarbonyl-pent-1-enyl]-2-methoxy-3-methylbenzoic Acid Methyl Ester]",EC50,HIV-1 strain IIIB,90 nM
same,CC50,MT-4 cells,16.9 µM
same,IC50,[1],20 nM
same,CC50,CEM-SS cells,5.1 µM
same,EC50,HIV-1RF,30 nM
same,Rat Plasma tp1/2 (min ± SD),[2],1.30 ± 0.09 min
same,EC50,HIV-2 strain (ROD),> 16.9 µM
"COC(=O)CCC/C=C(/c1cc(C)c2on(C)c(=O)c2c1)c1cc(C)c2oc(=O)n(C)c2c1 [Compound 65, (Z)-6-(2,7-Dimethyl-3-oxo-2,3-dihydro-benzo[d]isoxazol-5-yl)-6-(3,7-dimethyl-2-oxo-2,3-dihydro-benzoxazol-5-yl)-hex-5-enoic Acid Methyl Ester]",EC50,HIV-1 strain IIIB,4480 nM
same,CC50,[3],36.5 µM
same,IC50,[1],49200 nM
same,CC50,[4],11.1 µM
same,EC50,HIV-1RF,1790 nM
same,Rat Plasma tp1/2 (min ± SD),[2],0.46 ± 0.03 min
same,EC50,HIV-2 strain (ROD),> 36.5 µM
"COC(=O)CCCC=C(c1cc(C)c2oc(=O)n(C)c2c1)c1cc(C)c2oc(=O)n(C)c2c1 [Compound 66, 6,6-Bis-(3,7-dimethyl-2-oxo-2,3-dihydrobenzoxazol-5-yl)-hex-5-enoic Acid Methyl Ester]",EC50,HIV-1 strain IIIB,220 nM
same,CC50,[3],32.5 µM
same,IC50,[1],500 nM
same,CC50,[4],31 µM
same,EC50,HIV-1RF,620 nM
same,Rat Plasma tp1/2 (min ± SD),[2],0.59 ± 0.01 min
same,EC50,HIV-2 strain (ROD),> 32.5 µM
